The source of these data is patent publication US8993768B2, “Tropolone compounds for treating or preventing retroviral infection” (The United States of America, as represented by the …, priority 2011, dated 2015).

Like-named read-outs stand apart in the source and are kept apart here.

A word on the IC50: it is the midpoint of a concentration-inhibition curve. Usually EC50 stands for the concentration giving half of the maximal effect. One may read the CC50 as the concentration that lowers cell viability or growth by half.

Data set [1] addresses T1, HIV-1 RNase H (p66/p51 HIV-1 RT) (Human immunodeficiency virus type 1 group M subtype B, UniProt P04585).
T1 construct: RT is a p66/p51 heterodimer comprised of asymmetrically-organized subunits processed from the 165 kDa gag/pol polyprotein precursor; (His)6; made in house; host or cells: Escherichia coli
Put plainly: High throughput RNase H assay on sequence-independent RNA/DNA hybrid. The class given is biochemical. The settings on record: read-out: In vitro IC50. How it is done: IC50 values were determined as previously reported (Budihas, S. R., et al., Nucleic Acids Res., 33(4):1249-56 (2005)), using an 18-nucleotide 3′-flourescein-labeled RNA annealed to a complementary 18-nucleotide 5′-dabsyl-labeled DNA. […] The reaction was initiated by adding 1 μl of 100 mM MgCl2 to 9 μl of mixture containing 4 ng enzyme, 200 nM substrate, 20 μM α-hydroxytropolones in 50 mM Tris, pH 8.0, 80 mM KCl, 2 mM DTT, and 10% DMSO at 37° C., and quenched with 10 μl of a gel-loading buffer after 10 minutes. Hydrolysis products were fractionated by denaturing polyacrylamide gel electrophoresis and visualized by fluorescent imaging (Typhoon Trio+, GE Healthcare, Piscataway, N.J.). […]

Data set [2] concerns HIV-1 virus strain RF in CEM-SS cells. Put plainly: HIV-1 cytopathicity assay. The settings on record: for EC50: read-out: Virus Replication EC50; for Virus Replication EC50, protective effect class: tested up to 50 μM. The class given is cell-based. As to the method:
This assay was conducted as previously reported (Weislow, O, S., et al., J. Natl. Cancer Inst., 81(8):577-86 (1989)). Samples were dissolved in DMSO at 10 mM and diluted to a final high concentration of 50 μM in the 96-well assay plate, with 2-fold dilutions made to a low concentration of about 0.78 μM. All samples were tested in duplicate. The HIV-1 virus strain RF was used to infect CEM-SS cells. Compound cytotoxicity was measured in the same assay plate using uninfected cells. Regression analysis was used to estimate the effective concentration (EC50) as well as the cytotoxic concentration (CC50).
(In general: Damage to the host cells serves as the signal in cytopathic effect assays.)

The nature of data set [3]: Compound cytotoxicity in uninfected cells (same assay plate). The class given is cell-based. The settings on record: human, uninfected CEM-SS cells; read-out: Virus Replication CC50. As to the method: (§1) All samples were tested in duplicate. The HIV-1 virus strain RF was used to infect CEM-SS cells. Compound cytotoxicity was measured in the same assay plate using uninfected cells. Regression analysis was used to estimate the effective concentration (EC50) as well as the cytotoxic concentration (CC50).

A further data set addresses T2, HIV-1 RT RNase H (Human immunodeficiency virus type 1 group M subtype B, UniProt P04585).
T2 construct: RT is a p66/p51 heterodimer comprised of asymmetrically-organized subunits processed from the 165 kDa gag/pol polyprotein precursor; (His)6; made in house; host or cells: Escherichia coli
The data set is described as follows: Cleavage of the HIV-1 polypurine tract (PPT) primer, PPT/U3 junction. The settings on record: 20 μM inhibitor. The class given is biochemical. As to the method: FIG. 2A depicts a schematic model of RNA/DNA substrate, indicating the RNase H cleavage site at the PPT/U3 junction (< >). The PPT is indicated by the shaded box. FIG. 2B depicts the quantification of PPT cleavage data. All inhibitors were evaluated at 20 μM.
IC50 values were determined as previously reported (Budihas, S. R., et al., Nucleic Acids Res., 33(4):1249-56 (2005)), using an 18-nucleotide 3′-flourescein-labeled RNA annealed to a complementary 18-nucleotide 5′-dabsyl-labeled DNA. […] The reaction was initiated by adding 1 μl of 100 mM MgCl2 to 9 μl of mixture containing 4 ng enzyme, 200 nM substrate, 20 μM α-hydroxytropolones in 50 mM Tris, pH 8.0, 80 mM KCl, 2 mM DTT, and 10% DMSO at 37° C., and quenched with 10 μl of a gel-loading buffer after 10 minutes. Hydrolysis products were fractionated by denaturing polyacrylamide gel electrophoresis and visualized by fluorescent imaging (Typhoon Trio+, GE Healthcare, Piscataway, N.J.).
Since the high-throughput RNase H assay examines non-specific, “polymerase-independent” RNase H activity defined by the spatial separation of the DNA polymerase and RNase H active site of HIV-1 RT (Gopalakrishnan, V., et al., Proc. Natl. Acad. Sci. USA, 89(22):10763-7 (1992)), an examination of whether α-hydroxytropolones altered cleavage specificity on a more biologically-relevant substrate, namely the polypurine tract (PPT) primer, which must be processed from the RNA/DNA replication intermediate to initiate (+) strand DNA synthesis.

The test system of a further data set is uninfected CEM-SS cells. Put plainly: Compound cytotoxicity in uninfected cells (same assay plate). The class given is cell-based. The settings on record: for cytotoxicity (in words): up to a concentration of 50 μM; for CC50: uninfected CEM-SS cells, read-out: Virus Replication CC50. As to the method: as §1
Setting [4] is: HIV-1 RNase H enzymatic activity, sequence-independent RNA/DNA hybrid.
Where [5] appears, read: Human immunodeficiency virus 1, CEM-SS, HIV-1 RF.

With `Cc1cc(O)c(=O)c(O)c2c1CC(C(C)(O)CN1CCCCC1)CC2` (mixture of isomers) [Compound 1, 5,7-Dihydroxy-2-(1-hydroxy-1-methyl-2-piperidin-1-yl-ethyl)-9-methyl-1,2,3,4-tetrahydro benzocyclohepten-6-one], the IC50 in data set [1] (setting [4]) amounted to 0.93 µM. Moreover, in data set [2] (HIV-1 RF), the “protection against the cytopathic effect of the virus (in words)” value (shortened to “protection against the cytopathic effect”) is on record as “showed protection”. The EC50 in data set [2] (setting [5]) was 10.2 µM. Besides, the CC50 in data set [3] is greater than 50 µM.
As for `CCN(CC)CC(C)(O)C1CCc2c(c(C)cc(O)c(=O)c2O)C1` (mixture of isomers) [Compound 3, 2-(2-Diethylamino-1-hydroxy-1-methyl-ethyl)-5,7-dihydroxy-9-methyl-1,2,3,4-tetrahydrobenzocyclohepten-6-one], in data set [1] (setting [4]), the IC50 was found to be 0.49 µM. For the same compound, on HIV-1 RT RNase H, the “inhibition of PPT/U3 cleavage (in words)” value is “ineffective”. Also, in data set [2] (HIV-1 RF), the “protection against the cytopathic effect” value is listed as “slight protection” and the “Virus Replication EC50, protective effect class” value (“Virus Replication EC50” for short) is <50% (<50%=protective effect less than 50% of control, i.e. weak activity). For the same compound, the CC50 in data set [3] was greater than 50 µM.
Regarding `Cc1cc(O)c(=O)c(O)c2c1CC(C(C)(O)CNCc1ccccc1F)CC2` (mixture of isomers) [Compound 4, 2-[2-(2-Fluoro-benzylamino)-1-hydroxy-1-methyl-ethyl]-5,7-dihydroxy-9-methyl-1,2,3,4-tetrahydrobenzocyclohepten-6-one], the half-inhibitory concentration (IC50) in data set [1] (setting [4]) worked out at 1.4 µM. Besides, at HIV-1 RT RNase H, the “inhibition of PPT/U3 cleavage (in words)” value is recorded as “less active”. Besides, the “protection against the cytopathic effect” value in data set [2] (HIV-1 RF) is on record as “no protection”. Further, the CC50 in data set [3] was greater than 50 µM. In the data set with uninfected CEM-SS cells, the “cytotoxicity (in words)” value was “not cytotoxic”.
In the case of `CCSCC(C)(O)C1CCc2c(c(C)cc(O)c(=O)c2O)C1` (mixture of isomers) [Compound 6, 2-(2-Ethylthio-1-hydroxy-1-methyl-ethyl)-5,7-dihydroxy-9-methyl-1,2,3,4-tetrahydrobenzocyclohepten-6-one], in data set [1] (setting [4]), the IC50 is 0.41 µM. In data set [2] (HIV-1 RF), the “protection against the cytopathic effect” value is “slight protection” and the “Virus Replication EC50” value was <50% (<50%=protective effect less than 50% of control, i.e. weak activity). In addition, the CC50 in data set [3] was 25.8 µM.
On to `Cc1cc(O)c(=O)c(O)c2c1CC(C(C)(O)CSc1ccccc1)CC2` (mixture of isomers) [Compound 7, 5,7-Dihydroxy-2-(1-hydroxy-1-methyl-2-phenylthio-ethyl)-9-methyl-1,2,3,4-tetrahydrobenzocyclohepten-6-one], for which the IC50 in data set [1] (setting [4]) stood at 0.91 µM. Also, the “protection against the cytopathic effect” value in data set [2] (HIV-1 RF) was “showed protection”. Further, in data set [2] (setting [5]), the EC50 amounted to 11.5 µM. Also, the CC50 in data set [3] worked out at 17.8 µM.
The matching figures for `Cc1cc(O)c(=O)c(O)c2c1CC(C(C)(O)CSCc1ccccc1)CC2` (mixture of isomers) [Compound 8, 2-(2-Benzylthio-1-hydroxy-1-methyl-ethyl)-5,7-dihydroxy-9-methyl-1,2,3,4-tetrahydrobenzocyclohepten-6-one]: 1.3 µM, “showed protection”, roughly 4.2 µM and 17.4 µM.
On to `CCS(=O)(=O)CC(C)(O)C1CCc2c(c(C)cc(O)c(=O)c2O)C1` (mixture of isomers) [Compound 9, 2-(2-Ethanesulfonyl-1-hydroxy-1-methyl-ethyl)-5,7-dihydroxy-9-methyl-1,2,3,4-tetrahydrobenzocyclohepten-6-one], for which the concentration for half-maximal inhibition (IC50) in data set [1] (setting [4]) was 0.26 µM. Also, the inhibition at 20 µM at HIV-1 RT RNase H (read-out: effectiveness in inhibiting PPT/U3 cleavage) was roughly 100%. Moreover, in data set [2] (HIV-1 RF), the “protection against the cytopathic effect” value is “slight protection” and the “Virus Replication EC50” value is reported as <50% (<50%=protective effect less than 50% of control, i.e. weak activity). Besides, the CC50 in data set [3] was 10.4 µM.
`Cc1cc(O)c(=O)c(O)c2c1CC(C(C)(O)CS(=O)(=O)c1ccccc1)CC2` (mixture of isomers) [Compound 11, 2-(2-benzenesulfonyl-1-hydroxy-1-methyl-ethyl)-5,7-dihydroxy-9-methyl-1,2,3,4-tetrahydrobenzocyclohepten-6-one]: the IC50 in data set [1] (setting [4]) stood at 0.59 µM. The “inhibition of PPT/U3 cleavage (in words)” value against HIV-1 RT RNase H is recorded as “ineffective”. Also, the “protection against the cytopathic effect” value in data set [2] (HIV-1 RF) is on record as “showed protection”. Also, the EC50 in data set [2] (setting [5]) is 21.2 µM. Further, the CC50 in data set [3] is greater than 50 µM.
Consider `Cc1cc(O)c(=O)c(O)c2c1CC(C(C)(O)CO)CC2` (mixture of isomers) [Compound 12, 2-(1,2-Dihydroxy-1-methyl-ethyl)-5,7-dihydroxy-9-methyl-1,2,3,4-tetrahydrobenzocyclohepten-6-one], for which the IC50 in data set [1] (setting [4]) came to 1.9 µM. In data set [2] (HIV-1 RF), the “protection against the cytopathic effect” value is on record as “no protection”. Also, in the data set on uninfected CEM-SS cells, the CC50 was greater than 50 µM and the “cytotoxicity (in words)” value was “not cytotoxic”.
For `Cc1cc(O)c(=O)c(O)c2c1CC(C(C)O)CC2` (mixture of isomers) [Compound 13, 5,7-Dihydroxy-2-(1-hydroxy-ethyl)-9-methyl-1,2,3,4-tetrahydrobenzocyclohepten-6-one], in data set [1] (setting [4]), the IC50 worked out at 0.75 µM. Besides, in data set [2] (HIV-1 RF), the “protection against the cytopathic effect” value is recorded as “showed protection”. In addition, the half-maximal effective concentration (EC50) in data set [2] (setting [5]) was 6.9 µM. In addition, in data set [3], the CC50 came to 26.1 µM.
In the case of `Cc1cc(O)c(=O)c(O)c2c1CC(C(C)NCc1ccccc1)CC2` (mixture of isomers) [Compound 14, 2-(1-Benzylamino-ethyl)-5,7-Dihydroxy-9-methyl-1,2,3,4-tetrahydrobenzocyclohepten-6-one], the concentration for half-maximal inhibition (IC50) in data set [1] (setting [4]) was found to be 1.1 µM. Also, the “inhibition of PPT/U3 cleavage (in words)” value against HIV-1 RT RNase H is “less active”. For the same compound, the “protection against the cytopathic effect” value in data set [2] (HIV-1 RF) is given as “showed protection”. The EC50 in data set [2] (setting [5]) turned out to be 10.6 µM. The CC50 in data set [3] was 16.7 µM.
In the case of `Cc1cc(O)c(=O)c(O)c2c1CC(C(C)(O)Cn1ccnc1)CC2` (stereo not drawn) [Compound 2, 5,7-Dihydroxy-2-(1-hydroxy-2-imadazol-1-yl-1-methyl-ethyl)-9-methyl-1,2,3,4-tetrahydro benzocyclohepten-6-one], on HIV-1 RT RNase H, the “inhibition of PPT/U3 cleavage (in words)” value is reported as “less active”. In addition, in data set [2] (HIV-1 RF), the “protection against the cytopathic effect” value was “showed protection”. In addition, the EC50 in data set [2] (Human immunodeficiency virus 1, HIV-1 RF) came to 42.1 µM. In addition, in data set [3], the CC50 was greater than 50 µM.
Regarding `CC(C)c1ccc(O)c(=O)c(O)c1` [β-Thujaplicinol, reference compound], in data set [1], the IC50 worked out at 0.21 µM. Moreover, in data set [2] (HIV-1 RF), the “protection against the cytopathic effect” value is on record as “no protection” and the half-maximal effective concentration (EC50) amounted to 2.3 µM. Further, the CC50 with uninfected CEM-SS cells amounted to 2.3 µM.
